We go through 13 compounds from US20190185461A1, “B[…] B2-RECEPTOR AGONIST ACTIVITY AND M3-RECEPTOR ANTAGONIST ACTIVITY AND MEDICAL USE THEREOF” (Sichuan Haisco Pharmaceutical Co., Ltd., priority 2015, published 2019).

One may read the IC50 as the concentration that gives 50% inhibition. A lower IC50 goes with inhibition by little substance. The term EC50 denotes the concentration that produces a half-maximal response. Higher therefore signals weaker potency.

For test [1], the target named is T1, human muscarine receptor M3 (hM3) (Homo sapiens, UniProt P20309).
T1 construct: host or cells: CHO cells
In words: Inhibitory activity against human muscarine receptor M3 (aequorin luminescence, CHO cells, acetylcholine challenge). Format: cell-based. The note with it: IC50 for hM3 receptor, CHO cells stably expressing hM3 and apo-Aequorin; acetylcholine chloride 112.92 nM; luminescence over 20 seconds. As for the experimental part:
CHO cells (PerkinElmer, ES-212-AF) that stably express human muscarine receptor M3 (hM3) and apo-Aequorin were cultured at 37° C., 5% CO2 in Ham's F12 media (Invitrogen 12500-062) containing 10% fetal bovine serum (FBS) (Gibico 10099-141), 400 μg/mL G418 (sigma G5013) and 250 μg/mL Zeocin (Invivogen ant-zn-5p), until a confluency of 90% to 100% was reached. Cells were separated by rinsing with PBS/5 mM EDTA, collected by centrifugation, re-suspended in phenol red-free Ham's F12 media (Invitrogen 12500-062) containing 0.1 BSA (BOVOGEN BSAS 100), and counted. The cell concentration was adjusted to 1×10^6 cells/ml. 15 ml of the cell suspension was added to a 50-ml centrifuge tube, to which Coelenterazine-h (Promega 52011) was added to a final concentration of 5 μM. The tube was wrapped with a tin foil to shade light, and incubated on a rotary shaker at 20° C. for 4 hours. The cells were diluted with a phenol red-free/0.1% BSA Ham's F12 medium to a final concentration of 5.0×10^5 cells/ml, placed on a rotary shaker in low speed rotation, and incubated at room temperature for at least 1 hour. The compounds of the Examples were formulated with DMSO into 10 mM stock solutions, diluted in series with a phenol red-free/0.1% BSA Ham's F12 media (log(M): −7, −8, −9, −10, −11), and added to a 96-well plate at 50 μl/well. 50 μl cell suspension was further added to each well (25,000 cells/well) and incubated for 15 min at room temperature. The 96-well plate was placed in a microplate reader (Perkin Elmer, Envision), and a 50 μl solution of acetylcholine chloride (Sigma A6625) was added to each well at a concentration of 112.92 nM (hM3) with a microplate reader sample injector. The luminescence was recorded over 20 seconds, and IC50 values were calculated and analyzed by Origin 7.5.

Test [2] concerns the target T2, human β2-adrenergic receptor (hβ2) (Homo sapiens, UniProt P07550).
T2 construct: host or cells: CHO cells
In words: Agonist activity on human β2-adrenergic receptor (LANCE Ultra cAMP Assay, CHO cells). Format: cell-based. As to the method:
The agonist activity of the compounds of the Examples on the human adrenergic receptor was measured by the LANCE Ultra cAMP Assay.
CHO cells (PerkinElmer, ES-034-AF) that stably express human adrenergic receptor (hβ2) were cultured at 37° C., 5% CO2 in MEM-alpha media (Invitrogen 12561-056) containing 10% fetal bovine serum (FBS) (Gibico 10099-141) and 250 μg/ml Zeocin (InvivoGen ant-zn-5p), until a confluency of 90% to 100% was reached. Then the agonism on cAMP was tested by using a LANCE Ultra cAMP Assay kit (PerkinElmer TRF0263). Cells were separated with PBS/5 mM EDTA, collected by centrifugation, re-suspended in Stimulation Buffer (1×HBSS, 5 mM HEPES, 0.5 mM IBMX, 0.1% BSA, pH7.4), and adjusted to a cell concentration of 6×10^5 cells/ml. The compounds of the Examples were formulated with DMSO into 10 mM stock solutions, diluted in series with Stimulation Buffer, and added to a 384-well plate at 5 μl/well. 5 μl cell suspension was further added to each well (3,000 cells/well), incubated for 30 min at room temperature, then 5 μl of a 4×Eu-cAMP trace working solution was added to each well, and then 5 μl of a 4× Ulight-anti-cAMP working solution was added to each well, followed by incubation at room temperature for 1 hour. The 384-well plate was detected for TR-FRET with a microplate reader (Perkin Elmer, Envision), and EC50 values were calculated and analyzed by Origin 7.5.

T1 sequence (P20309 whole entry): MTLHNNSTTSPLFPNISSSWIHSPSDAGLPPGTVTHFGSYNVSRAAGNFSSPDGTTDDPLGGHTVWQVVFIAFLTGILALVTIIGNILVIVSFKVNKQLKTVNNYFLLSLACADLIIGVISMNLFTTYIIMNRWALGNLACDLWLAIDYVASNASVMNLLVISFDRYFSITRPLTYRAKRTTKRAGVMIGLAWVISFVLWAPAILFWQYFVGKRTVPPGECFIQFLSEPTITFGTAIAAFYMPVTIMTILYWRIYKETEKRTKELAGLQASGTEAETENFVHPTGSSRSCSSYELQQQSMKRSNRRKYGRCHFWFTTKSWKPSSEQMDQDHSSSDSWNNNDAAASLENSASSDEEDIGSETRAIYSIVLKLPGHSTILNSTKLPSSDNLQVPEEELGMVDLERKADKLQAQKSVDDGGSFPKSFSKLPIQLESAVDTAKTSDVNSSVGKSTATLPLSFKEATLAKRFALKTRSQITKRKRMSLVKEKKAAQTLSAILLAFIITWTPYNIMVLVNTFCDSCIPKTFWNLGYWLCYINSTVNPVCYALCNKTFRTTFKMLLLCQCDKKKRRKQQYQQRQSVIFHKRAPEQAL
T2 sequence (P07550 whole entry): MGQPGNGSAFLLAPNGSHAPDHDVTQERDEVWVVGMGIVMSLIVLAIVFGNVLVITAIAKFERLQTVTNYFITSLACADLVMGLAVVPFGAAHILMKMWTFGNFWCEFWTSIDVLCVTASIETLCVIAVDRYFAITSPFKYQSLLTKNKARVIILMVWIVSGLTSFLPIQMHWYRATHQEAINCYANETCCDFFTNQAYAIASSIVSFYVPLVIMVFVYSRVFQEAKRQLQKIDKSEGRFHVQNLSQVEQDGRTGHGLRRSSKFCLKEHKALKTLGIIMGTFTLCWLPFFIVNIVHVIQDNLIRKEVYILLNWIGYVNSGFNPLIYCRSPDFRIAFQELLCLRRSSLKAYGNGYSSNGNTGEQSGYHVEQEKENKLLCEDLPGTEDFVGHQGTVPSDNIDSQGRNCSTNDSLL

In turn, `O=C(OC1CC2(CCN(CCCn3nnc4cc(CNC[C@H](O)c5ccc(O)c6[nH]c(=O)ccc56)ccc43)CC2)C1)C(O)(c1ccccc1)C1CCCC1` (single isomer, unassigned) [Isomer 1 of Compound 4] displayed an IC50 in test [1] of 2.36 nM. On the same count and under the same terms, for `O=C(OC1CC2(CCN(CCCn3nnc4cc(CNC[C@H](O)c5ccc(O)c6[nH]c(=O)ccc56)ccc43)CC2)C1)C(O)(c1cccs1)C1CCCC1` (single isomer, unassigned) [Isomer 1 of Compound 9, ditrifluoroacetic acid] the value was 2.47 nM. The same measure, in the same setting: for `O=C(OC1CC2(CCN(CCCn3nnc4cc(CNC[C@H](O)c5ccc(O)c6[nH]c(=O)ccc56)ccc43)CC2)C1)C(O)(c1ccccc1)C1CCCC1` (single isomer, unassigned) [Isomer 2 of Compound 4] the value was 1.77 nM; for `O=C(OC1CC2(CCN(CCCn3nnc4cc(CNC[C@H](O)c5ccc(O)c6[nH]c(=O)ccc56)ccc43)CC2)C1)C(O)(c1cccs1)C1CCCC1` (single isomer, unassigned) [Isomer 2 of Compound 9, ditrifluoroacetic acid], 2.76 nM. With `O=C(OC1CC2(CCN(CCCn3nnc4cc(CNC[C@H](O)c5ccc(O)c6[nH]c(=O)ccc56)ccc43)CC2)C1)C(O)(c1cccs1)c1cccs1` [Compound 1, [7-[3-[5-[[[(2R)-2-hydroxy-2-(8-hydroxy-2-oxo-1H-quinolin-5-yl)ethyl]amino]methyl]benzotriazol-1-yl]propyl]-7-azaspiro[3.5]nonan-2-yl] 2-hydroxy-2,2-bis(2-thienyl)acetate], in test [2], the EC50 was determined as 4.45 nM. Further, the IC50 in test [1] amounted to 0.43 nM.

Take `O=C1COc2c([C@@H](O)CNCc3ccc4c(c3)nnn4CCCN3CCC4(CC3)CC(OC(=O)C(O)(c3cccs3)c3cccs3)C4)ccc(O)c2N1` [Compound 2, [7-[3-[5-[[[(2R)-2-hydroxy-2-(5-hydroxy-3-oxo-4H-1,4-benzoxazin-8-yl)ethyl]amino]methyl]benzotriazol-1-yl]propyl]-7-azaspiro[3.5]nonan-2-yl] 2-hydroxy-2,2-bis(2-thienyl)acetate; ditrifluoroacetic acid]: in test [2], the half-maximal effective concentration (EC50) is 1.3 nM. Further, the IC50 in test [1] stood at 0.59 nM. In test [1], `O=CNc1cc([C@@H](O)CNCc2ccc3c(c2)nnn3CCCN2CCC3(CC2)CC(OC(=O)C(O)(c2cccs2)c2cccs2)C3)ccc1O` [Compound 3, [7-[3-[5-[[[(2R)-2-(3-formamido-4-hydroxy-phenyl)-2-hydroxy-ethyl]amino]methyl]benzotriazol-1-yl]propyl]-7-azaspiro[3.5]nonan-2-yl] 2-hydroxy-2,2-bis(2-thienyl)acetate; ditrifluoroacetic acid] gave an IC50 of 0.22 nM. The same measure, in the same setting: to `O=C(OC1CC2(CCN(CCCn3nnc4cc(CNC[C@H](O)c5ccc(O)c6[nH]c(=O)ccc56)ccc43)CC2)C1)C(O)(c1ccccc1)C1CCCC1` (stereo partly drawn) [Compound 4, [7-[3-[5-[[[(2R)-2-hydroxy-2-(8-hydroxy-2-oxo-1H-quinolin-5-yl)ethyl]amino]methyl]benzotriazol-1-yl]propyl]-7-azaspiro[3.5]nonan-2-yl] 2-cyclopentyl-2-hydroxy-2-phenyl-acetate; ditrifluoroacetic acid] belongs 2.46 nM. Turning to `O=C(OC1CC2(CCN(CCCn3c(=O)sc4cc(CNC[C@H](O)c5ccc(O)c6[nH]c(=O)ccc56)ccc43)CC2)C1)C(O)(c1cccs1)c1cccs1` [Compound 7, [7-[3-[6-[[[(2R)-2-hydroxy-2-(8-hydroxy-2-oxo-1H-quinolin-5-yl)ethyl]amino]methyl]-2-oxo-1,3-benzothiazol-3-yl]propyl]-7-azaspiro[3.5]nonan-2-yl] 2-hydroxy-2,2-bis(2-thienyl)acetate; ditrifluoroacetic acid], in test [2], the EC50 is 4 nM. This compound also came in with an IC50 in test [1] of 1.29 nM. For `O=C(OC1CC2(CCN(CCCn3c(=O)oc4cc(CNC[C@H](O)c5ccc(O)c6[nH]c(=O)ccc56)ccc43)CC2)C1)C(O)(c1cccs1)c1cccs1` [Compound 8, [7-[3-[6-[[[(2R)-2-hydroxy-2-(8-hydroxy-2-oxo-1H-quinolin-5-yl)ethyl]amino]methyl]-2-oxo-1,3-benzoxazol-3-yl]propyl]-7-azaspiro[3.5]nonan-2-yl] 2-hydroxy-2,2-bis(2-thienyl)acetate; ditrifluoroacetic acid] the same measures were 6.13 nM and 0.65 nM. `CN(CCCn1nnc2cc(CNC[C@H](O)c3ccc(O)c4[nH]c(=O)ccc34)ccc21)C(=O)CCN1CCC2(CC1)CC(OC(=O)C(O)(c1cccs1)c1cccs1)C2` [Compound 11, [7-[3-[3-[5-[[[(2R)-2-hydroxy-2-(8-hydroxy-2-oxo-1H-quinolin-5-yl)ethyl]amino]methyl]benzotriazol-1-yl]propyl-methyl-amino]-3-oxo-propyl]-7-azaspiro[3.5]nonan-2-yl] 2-hydroxy-2,2-bis(2-thienyl)acetate; ditrifluoroacetic acid] returned an IC50 in test [1] of 0.46 nM. The compound `O=C(OC1CC2(CCN(CCCn3nnc4cc(CNC[C@H](O)c5ccc(O)c6[nH]c(=O)sc56)ccc43)CC2)C1)C(O)(c1cccs1)c1cccs1` [Compound 12, [7-[3-[5-[[[(2R)-2-hydroxy-2-(4-hydroxy-2-oxo-3H-1,3-benzothiazol-7-yl)ethyl]amino]methyl]benzotriazol-1-yl]propyl]-7-azaspiro[3.5]nonan-2-yl] 2-hydroxy-2,2-bis(2-thienyl)acetate; ditrifluoroacetic acid] displayed an EC50 in test [2] of 0.47 nM. The compound also yielded an IC50 in test [1] of 0.52 nM. Regarding `O=C(OC1CC2(CCN(CCCn3nnc4cc(CNC[C@H](O)c5ccc(O)c(CO)c5)ccc43)CC2)C1)C(O)(c1cccs1)c1cccs1` [Compound 13, [7-[3-[5-[[[(2R)-2-hydroxy-2-[4-hydroxy-3-(hydroxymethyl)phenyl]ethyl]amino]methyl]benzotriazol-1-yl]propyl]-7-azaspiro[3.5]nonan-2-yl] 2-hydroxy-2,2-bis(2-thienyl)acetate; ditrifluoroacetic acid], half-maximal inhibition in test [1] (IC50) required 0.31 nM.
